{"source": "patent US12297241B2", "about": "“Method to engineer transplantable human tissues” (The Regents of the University of California, priority 2018, dated 2025)", "key": {"[1]": {"system": "miR-124-HSV-tk teratomas (H1 ESC line)", "assay": "In vivo enrichment of miR-124-HSV-tk teratomas with intratumoral GCV, scRNA-seq", "design": "species or system Rag2−/−;γc−/− immunodeficient mice", "protocol": "(§1) FIGS. 1A-1F: Molecular Sculpting of the Teratoma through miRNAs. (FIG. 1A) Schematic of miRNA-HSV-tk-GFP construct. 2A is gene encoding for a self-cleaving peptide. Upon transcription of construct it will silenced if appropriate endogenously expressed miRNA is present in the cell. (FIG. 1B) Schematic of how developing teratoma should form in the presence of Ganciclovir (GCV, 80 mg/kg/d) if cells were transduced with miRNA-HSV-tk construct. (FIG. 1C) Phase images from light microscopy showing H1 cell survival after 3 and 5 days in the presence of GCV (10 μM). H1 ESC line was either transduced with GFP control (EGIP backbone) or miR-124-HSV-tk-GFP. (FIG. 1D) Fluorescent microscopy and phase images showing HEK293T and HeLA cells transduced with either No GFP control, HSV-tk-GFP, or miR-21-HSV-tk-GFP. (FIG. 1E) Quantification of (FIG. 1D) using flow cytometry and gating based on the presence or absence of GFP. (FIG. 1F) In vivo studies of miR-124-HSV-tk-GFP teratomas in the presence of GCV administration (80 mg/kg/d) showing cell type fraction log fold-change based on different cell types with accompanying Z-scores compared to miR-124-HSV-tk-GFP teratomas in the absence of GCV.\nApplicant then tested the miRNA-HSV-tk constructs in vivo with the goal to grow a teratoma that is enriched for a desired lineage. For this task the miR-124-HSV-tk construct was selected to enrich for the neural lineage. After the H1 ESC line was successfully transduced and selected for the miR-124-HSV-tk construct, cells were subcutaneously injected into Rag2^−/−;γc^−/− immunodeficient mice and allowed to form teratomas as described above. Once teratomas reached a minimum of 1 cm in diameter, intratumoral injections with GCV (80 mg/kg/d) for half to tumors began until they grew an appropriate time for extraction (˜10 weeks).\nHowever, enrichment for foregut was also observed. To the best os Applicant's knowledge, there is no known published literature on miR-124 having a role in foregut development."}, "[2]": {"system": "H1 ESC line", "assay": "HSV-tk suicide gene killing test with GCV in transduced H1 ESC line", "type": "cell-based, human", "settings": "GCV 10 μM, 5 days", "protocol": "as §1, with “(FIG. 1F) In vivo studies of miR-124-HSV-tk-GFP teratomas in the presence of GCV administration (80 mg/kg/d) showing cell type fraction log fold-change based on different cell types with accompanying Z-scores compared to miR-124-HSV-tk-GFP teratomas in the absence of GCV.” left out\nmiRNA-HSV-tk constructs were tested in vitro in the H1 ESC line. The functionality of the suicide gene HSV-tk was assessed in the presence of GCV. […] Furthermore, the unique miRNA specificity of the constructs was assessed based on cell type. […]"}, "[3]": {"settings": "intratumoral GCV 80 mg/kg/d vs tumor without GCV"}}}
{"smiles": "Nc1nc(O)c2ncn(COC(CO)CO)c2n1", "note": "[GCV, ganciclovir]", "values": [{"measurement": "tumor size", "setting": "[1]; intratumoral GCV 80 mg/kg/d until extraction (~10 weeks) vs tumor without GCV", "result": "smaller size"}, {"measurement": "cell types depleted (scRNA-seq)", "setting": "[1]; [3]", "result": "muscle, retinal pigmented epithelium, and many other cell types"}, {"measurement": "cell-type fraction enriched (scRNA-seq)", "setting": "[1]; [3]", "result": "early neurons, neuronal progenitors, Schwann cells, and foregut"}, {"measurement": "external heterogeneity of tumor", "setting": "[1]; [3]", "result": "less heterogeneous"}, {"measurement": "cell survival in the presence of GCV", "setting": "[2]; H1 cells transduced with GFP control (EGIP backbone alone)", "result": "unaffected"}, {"measurement": "cell survival in the presence of GCV", "setting": "[2]; H1 cells transduced with the miRNA-HSV-tk construct", "result": "total cell death"}]}
